Biological target: T1, glucocorticoid receptor (Homo sapiens, UniProt P04150)
T1 construct: endogenous in cells
T1 sequence (P04150 1-777): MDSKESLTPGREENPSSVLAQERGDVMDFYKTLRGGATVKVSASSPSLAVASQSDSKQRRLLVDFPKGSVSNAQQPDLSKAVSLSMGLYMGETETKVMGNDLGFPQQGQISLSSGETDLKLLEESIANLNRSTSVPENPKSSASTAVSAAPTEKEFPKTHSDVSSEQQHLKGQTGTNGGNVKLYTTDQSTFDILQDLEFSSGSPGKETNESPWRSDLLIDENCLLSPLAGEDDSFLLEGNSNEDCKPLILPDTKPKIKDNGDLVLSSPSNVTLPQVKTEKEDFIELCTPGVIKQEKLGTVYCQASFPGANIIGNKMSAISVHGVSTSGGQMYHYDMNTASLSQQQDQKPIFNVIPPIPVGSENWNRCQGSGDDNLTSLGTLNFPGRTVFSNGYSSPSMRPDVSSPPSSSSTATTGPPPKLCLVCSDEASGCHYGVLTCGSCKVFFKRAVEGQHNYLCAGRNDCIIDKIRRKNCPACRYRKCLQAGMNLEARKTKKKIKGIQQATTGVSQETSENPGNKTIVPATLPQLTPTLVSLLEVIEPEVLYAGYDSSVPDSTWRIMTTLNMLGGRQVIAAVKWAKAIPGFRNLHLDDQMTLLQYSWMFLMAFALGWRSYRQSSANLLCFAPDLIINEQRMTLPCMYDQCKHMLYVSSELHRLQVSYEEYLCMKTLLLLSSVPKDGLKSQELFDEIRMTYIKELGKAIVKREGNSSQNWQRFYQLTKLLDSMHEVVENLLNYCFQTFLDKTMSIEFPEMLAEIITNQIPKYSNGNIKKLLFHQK
Experiment: Ligand binding assay (GR BIND)
Outline: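 Displacement of tritiated dexamethasone (6 nM trace solution) from receptor in cell supernatant was measured after overnight incubation at 4 °C in molybdate-containing TEGM, pH 7.2, 2% ethanol. Hydroxylapatite pulled down the receptor–ligand complex for filter washing and scintillation counting, with dexamethasone as reference.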

SMILES	Ki
C[C@]12Cc3cnn(-c4ccc(F)cc4)c3C=C1CC[C@@H]2CN(CC#N)S(=O)(=O)c1ccccc1-c1ccccc1 [Example 53, N-(cyanomethyl)-N-{[(4αR,5S)-1-(4-fluorophenyl)-4α-methyl-1,4,4α,5,6,7-hexahydrocyclopenta[f]indazol-5-yl]methyl}biphenyl-2-sulfonamide]	3.7 nM
COC(=O)c1sccc1S(=O)(=O)N(CC#N)C[C@H]1CCC2=Cc3c(cnn3-c3ccc(F)cc3)C[C@@]21C [Example 34, methyl 3-[((cyanomethyl){[(4αR,5S)-1-(4-fluorophenyl)-4α-methyl-1,4,4α,5,6,7-hexahydrocyclopenta[f]indazol-5-yl]methyl}amino)sulfonyl]thiophene-2-carboxylate]	1.7 nM
C[C@]12Cc3cnn(-c4ccc(F)cc4)c3C=C1CC[C@@H]2CN(CC1(O)CC1)S(=O)(=O)c1ccccc1F [Example 200, 2-fluoro-N-{[(4αR,5S)-1-(4-fluorophenyl)-4α-methyl-1,4,4α,5,6,7-hexahydrocyclopenta[f]indazol-5-yl]methyl}-N-[(1-hydroxycyclopropyl)methyl]benzenesulfonamide]	1.8 nM
Cc1cc(S(=O)(=O)N(CC#N)C[C@H]2CCC3=Cc4c(cnn4-c4ccc(F)cc4)C[C@@]32C)c(C)o1 [Example 33, (4αR,5S)-5-({(cyanomethyl)[(2,5-dimethyl-3-furyl)sulfonyl]amino}methyl)-1-(4-fluorophenyl)-4α-methyl-1,4,4α,5,6,7-hexahydrocyclopenta[f]indazol-2-ium]	8.8 nM
C[C@]12Cc3cnn(-c4ccc(F)cc4)c3C=C1CC[C@@H]2CN(CCO)S(=O)(=O)c1ccccc1F [Example 17, 2-fluoro-N-{[(4αR,5S)-1-(4-fluorophenyl)-4α-methyl-1,4,4α,5,6,7-hexahydrocyclopenta[f]indazol-5-yl]methyl}-N-(2-hydroxyethyl)benzenesulfonamide]	2.1 nM
C[C@]12Cc3cnn(-c4ccc(F)cc4)c3C=C1CC[C@@H]2CN(CC1(O)CCCCC1)S(=O)(=O)c1ccccc1F [Example 201, 2-fluoro-N-{[(4αR,5S)-1-(4-fluorophenyl)-4α-methyl-1,4,4α,5,6,7-hexahydrocyclopenta[f]indazol-5-yl]methyl}-N-[(1-hydroxycyclohexyl)methyl]benzenesulfonamide]	2.3 nM
C[C@]12Cc3cnn(-c4ccc(F)cc4)c3C=C1CC[C@@H]2CN(CC#N)S(=O)(=O)c1ccc(Oc2cccc(Cl)c2C#N)cc1 [Example 38, 4-(3-chloro-2-cyanophenoxy)-N-(cyanomethyl)-N-{[(4αR,5S)-1-(4-fluorophenyl)-4α-methyl-1,4,4α,5,6,7-hexahydrocyclopenta[f]indazol-5-yl]methyl}benzenesulfonamide]	6.4 nM
Cc1ccc(S(=O)(=O)N(CC#N)C[C@H]2CCC3=Cc4c(cnn4-c4ccc(F)cc4)C[C@@]32C)s1 [Example 31, N-(cyanomethyl)-N-{[(4αR,5S)-1-(4-fluorophenyl}-4α-methyl-1,4,4α,5,6,7-hexahydrocyclopenta[f]indazol-5-yl]methyl}-5-methylthiophene-2-sulfonamide]	6.1 nM
COC(=O)c1ccccc1S(=O)(=O)N(C[C@H]1CCC2=Cc3c(cnn3-c3ccc(F)cc3)C[C@@]21C)C[C@H](C)O [Example 187, methyl 2-({{[(4αR,5S)-1-(4-fluorophenyl)-4α-methyl-1,4,4α,5,6,7-hexahydrocyclopenta[f]indazol-5-yl]methyl}[(2S)-2-hydroxypropyl]amino}sulfonyl)benzoate]	2.5 nM
CN(C[C@H]1CCC2=Cc3c(cnn3-c3ccc(F)cc3)C[C@@]21C)S(=O)(=O)CC(F)(F)F [Example 177, 2,2,2-trifluoro-N-{[(4αR,5S)-1-(4-fluorophenyl)-4α-methyl-1,4,4α,5,6,7-hexahydrocyclopenta[f]indazol-5-yl]methyl}-N-methylethanesulfonamide]	1.6 nM
Cc1oncc1S(=O)(=O)N(CCO)C[C@H]1CCC2=Cc3c(cnn3-c3ccc(F)cc3)C[C@@]21C [Example 56, N-{[(4αR,5S)-1-(4-fluorophenyl)-4α-methyl-1,4,4α,5,6,7-hexahydrocyclopenta[f]indazol-5-yl]methyl}-N-(2-hydroxyethyl)-5-methylisoxazole-4-sulfonamide]	4.6 nM
C[C@]12Cc3cnn(-c4ccc(F)cc4)c3C=C1CC[C@@H]2CN(CC1CC1)S(=O)(=O)/C=C/c1ccccc1 [Example 13, (E)-N-(cyclopropylmethyl)-N-{[(4αR,5S)-1-(4-fluorophenyl)-4α-methyl-1,4,4α,5,6,7-hexahydrocyclopenta[f]indazol-5-yl]methyl}-2-phenylethylenesulfonamide]	0.6 nM
C[C@]12Cc3cnn(-c4ccc(F)cc4)c3C=C1CC[C@@H]2CN(CC#N)S(=O)(=O)c1ccc(F)cc1F [Example 51, N-(cyanomethyl)-2,4-difluoro-N-{[(4αR,5S)-1-(4-fluorophenyl)-4α-methyl-1,4,4α,5,6,7-hexahydrocyclopenta[f]indazol-5-yl]methyl}benzenesulfonamide]	2.5 nM

The remaining compounds from weak to strong by Ki, led by results:

Ki	SMILES
10.7 nM	Cn1cnc(S(=O)(=O)N(CC#N)C[C@H]2CCC3=Cc4c(cnn4-c4ccc(F)cc4)C[C@@]32C)c1 [Example 37, N-(cyanomethyl)-N-{[(4αR,5S)-1-(4-fluorophenyl}-4α-methyl-1,4,4α,5,6,7-hexahydrocyclopenta[f]indazol-5-yl]methyl}-1-methyl-1H-imidazole-4-sulfonamide]
9.7 nM	C[C@]12Cc3cnn(-c4ccc(F)cc4)c3C=C1CC[C@@H]2CN(CC#N)S(=O)(=O)c1cccc(Cl)c1Cl [Example 26, 2,3-dichloro-N-(cyanomethyl)-N-{[(4αR,5S)-1-(4-fluorophenyl)-4α-methyl-1,4,4α,5,6,7-hexahydrocyclopenta[f]indazol-5-yl]methyl}benzenesulfonamide]
3 nM	C[C@]12Cc3cnn(-c4ccc(F)cc4)c3C=C1CC[C@@H]2CN(CCC#N)S(=O)(=O)c1ccccc1F [Example 16, N-(2-cyanoethyl)-2-fluoro-N-{[(4αR,5S)-1-(4-fluorophenyl)-4α-methyl-1,4,4α,5,6,7-hexahydrocyclopenta[f]indazol-5-yl]methyl}benzenesulfonamide]
2.7 nM	C[C@]12Cc3cnn(-c4ccc(F)cc4)c3C=C1CC[C@@H]2CN(CC#N)S(=O)(=O)c1ccccc1C#N [Example 55]
2.4 nM	C[C@]12Cc3cnn(-c4ccc(F)cc4)c3C=C1CC[C@@H]2CN(CC#N)S(=O)(=O)c1ccc(Oc2ccccn2)cc1 [Example 45, N-(cyanomethyl)-N-{[(4αR,5S)-1-(4-fluorophenyl)-4α-methyl-1,4,4α,5,6,7-hexahydrocyclopenta[f]indazol-5-yl]methyl}-4-(pyridin-2-yloxy)benzenesulfonamide]
2.4 nM	CC(C)(O)CN(C[C@H]1CCC2=Cc3c(cnn3-c3ccc(F)cc3)C[C@@]21C)S(=O)(=O)c1ccccc1F [Example 199, 2-fluoro-N-{[(4αR,5S)-1-(4-fluorophenyl)-4α-methyl-1,4,4α,5,6,7-hexahydrocyclopenta[f]indazol-5-yl]methyl}-N-(2-hydroxy-2-methylpropyl)benzenesulfonamide]
2.2 nM	C[C@]12Cc3cnn(-c4ccc(F)cc4)c3C=C1CC[C@@H]2CN(CC#N)S(=O)(=O)c1ccc(F)c(Cl)c1 [Example 20, 3-chloro-N-(cyanomethyl)-4-fluoro-N-{[(4αR,5S)-1-(4-fluorophenyl)-4α-methyl-1,4,4α,5,6,7-hexahydrocyclopenta[f]indazol-5-yl]methyl}benzenesulfonamide]
1.9 nM	Cc1nn(C)c(Cl)c1S(=O)(=O)N(CC#N)C[C@H]1CCC2=Cc3c(cnn3-c3ccc(F)cc3)C[C@@]21C [Example 52, 5-chloro-N-(cyanomethyl)-N-{[(4αR,5S)-1-(4-fluorophenyl)-4α-methyl-1,4,4α,5,6,7-hexahydrocyclopenta[f]indazol-5-yl]methyl}-1,3-dimethyl-1H-pyrazole-4-sulfonamide]
1.9 nM	COC(=O)c1ccccc1S(=O)(=O)N(C[C@H]1CCC2=Cc3c(cnn3-c3ccc(F)cc3)C[C@@]21C)C[C@@H](C)O [Example 186, methyl 2-({{[(4αR,5S)-1-(4-fluorophenyl)-4α-methyl-1,4,4α,5,6,7-hexahydrocyclopenta[f]indazol-5-yl]methyl}[(2R)-2-hydroxypropyl]amino}sulfonyl)benzoate]
1.1 nM	COC(=O)c1ccccc1S(=O)(=O)N(CCc1ccccc1F)C[C@H]1CCC2=Cc3c(cnn3-c3ccc(F)cc3)C[C@@]21C [Example 189, methyl 2-[([2-(2-fluorophenyl)ethyl]{[(4αR,5S)-1-(4-fluorophenyl)-4α-methyl-1,4,4α,5,6,7-hexahydrocyclopenta[f]indazol-5-yl]methyl}amino)sulfonyl]benzoate]
0.9 nM	C[C@]12Cc3cnn(-c4ccc(F)cc4)c3C=C1CC[C@@H]2CN(CC#N)S(=O)(=O)Cc1ccccc1 [Example 48, N-(cyanomethyl)-N-{[(4αR,5S)-1-(4-fluorophenyl)-4α-methyl-1,4,4α,5,6,7-hexahydrocyclopenta[f]indazol-5-yl]methyl}-1-phenylmethanesulfonamide]
